Reference: ChEMBL document CHEMBL4339189, “Dissymmetric pyridyl-substituted 3,5-bis(arylidene)-4-piperidones as anti-hepatoma agents by inhibiting NF-κB pathway activation” (Eur J Med Chem, 2019)
Calls of active or inactive are those of the source. No cut-off for these calls is given here.

How the values were obtained:
RAW264.7 [1] = experiment: Antiinflammatory activity in mouse RAW264.7 cells assessed as inhibition of LPS-stimulated TNF-alpha production at 6.0 uM preincubated for 2 hrs followed by LPS stimulaton measured after 22 hrs by ELISA relative to control; assay type: functional
[2] = target: T1, NF-kappa-B inhibitor alpha (Mus musculus) (UniProt Q9Z1E3); experiment: Inhibition of NFkappaB signalling activation in mouse RAW264.7 cells assessed as reduction in […] IkBalpha phosphorylation at 1 to 4 uM incubated for 2 hrs after pre-incubation with LPS for 15 mins by Western blot analysis; assay type: cell-based
T1 sequence (whole entry): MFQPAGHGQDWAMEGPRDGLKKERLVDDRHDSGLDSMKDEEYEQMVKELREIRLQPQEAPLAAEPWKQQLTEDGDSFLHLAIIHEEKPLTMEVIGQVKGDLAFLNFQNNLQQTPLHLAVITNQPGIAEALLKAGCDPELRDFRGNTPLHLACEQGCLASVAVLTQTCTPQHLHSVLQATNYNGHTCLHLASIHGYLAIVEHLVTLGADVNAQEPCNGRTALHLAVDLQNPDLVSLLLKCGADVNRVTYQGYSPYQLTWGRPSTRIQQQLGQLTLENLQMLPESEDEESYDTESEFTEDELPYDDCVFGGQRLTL

HepG2 [3] = experiment: Induction of apoptosis in human HepG2 cells xenografted in Balb/c nude mouse assessed as reduction in Bcl-2 protein expression at 10 mg/kg, ip administered every 2 days for 20 days and measured every 2 days by immunohistochemistry; assay type: functional, organism-based
[4] = target: Transcription factor p65 (Mus musculus) (UniProt Q04207); experiment: Inhibition of LPS-induced NFkappaB p65 nuclear translocation in mouse RAW264.7 cells at 4 uM incubated for 2 hrs after pre-incubation with LPS for 15 mins by DAPI staining-based immunofluorescence assay; assay type: cell-based
Chain of Transcription factor p65 (Mus musculus) (Q04207 whole entry): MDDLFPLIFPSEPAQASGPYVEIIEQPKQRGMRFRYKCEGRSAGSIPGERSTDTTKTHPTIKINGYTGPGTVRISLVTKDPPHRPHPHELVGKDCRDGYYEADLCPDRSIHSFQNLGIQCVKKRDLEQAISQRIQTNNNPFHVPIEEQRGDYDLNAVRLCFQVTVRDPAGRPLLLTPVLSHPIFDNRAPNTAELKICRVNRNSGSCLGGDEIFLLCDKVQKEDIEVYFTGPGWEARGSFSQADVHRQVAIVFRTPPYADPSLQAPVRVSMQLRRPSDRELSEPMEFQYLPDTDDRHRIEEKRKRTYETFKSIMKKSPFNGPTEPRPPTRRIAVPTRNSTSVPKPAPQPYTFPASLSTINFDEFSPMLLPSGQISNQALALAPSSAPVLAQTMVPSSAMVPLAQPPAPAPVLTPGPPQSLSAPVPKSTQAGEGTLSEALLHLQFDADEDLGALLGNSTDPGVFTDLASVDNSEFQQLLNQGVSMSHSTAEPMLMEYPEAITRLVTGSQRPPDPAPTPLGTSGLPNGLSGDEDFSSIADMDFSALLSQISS

HepG2 [5] = experiment: Induction of apoptosis in human HepG2 cells assessed as increase in cleaved caspase-3 expression up to 4 uM after 24 hrs by Western blot analysis; assay type: functional, cell-based
RAW264.7 [6] = experiment: Antiinflammatory activity in mouse RAW264.7 cells assessed as inhibition of LPS-stimulated IL-6 production 6.0 uM preincubated for 2 hrs followed by LPS stimulaton measured after 22 hrs by ELISA relative to control; assay type: functional
Mus musculus = experiment: Antiinflammatory activity in human HepG2 cells xenografted Balb/c nude mouse assessed as reduction in TNFalpha protein expression at 0.1 mg/kg, ip administered every 2 days for 20 days and measured every 2 days by immunohistochemistry; assay type: functional, organism-based
HepG2 [7] = experiment: Antitumor activity against human HepG2 cells xenografted in Balb/c nude mouse assessed as effect on tumor volume level at 1 mg/kg, ip administered every 2 days for 20 days and measured every 2 days; assay type: functional, organism-based
RAW264.7 [8] = experiment: Cytotoxicity against mouse RAW264.7 cells assessed as reduction in cell viability at 6.0 uM incubated for 24 hrs by MTT assay; assay type: cell-based; conditions: raw264.7, 24 h

O=C1/C(=C/c2cccnc2)CN(S(=O)(=O)c2ccc(C(F)(F)F)cc2)C/C1=C\c1ccccc1C(F)(F)F
inhibition at 6 µM (RAW264.7 [1]): ≤ 15%
inhibition [2]: Dose-dependent effect
Activity (HepG2 [3]): Active
inhibition [4]: Active
Activity (HepG2 [5]): Dose-dependent effect
inhibition (INH) (RAW264.7 [6]): <=15%
Activity (Mus musculus): inactive
Activity (HepG2 [7]): inactive
Activity (RAW264.7 [8]): Non-Toxic
